Laboratory results reported in patent US20250235458A1, “Benzimidazole derivatives for use in the treatment or prevention of a histiocytosis or a craniopharyngioma” (UNIVERSITE CLAUDE BERNARD LYON 1, priority 2021, published 2025).

Columns and labels:
Format in all cases: cell-based, murine
[1] = tested on: MutuDC1940 cells; experiment: CXCL2 quantification assay (ELISA); details: 8 μM, 16 h or 24 h treatment, vs DMSO
Protocol: 0.5×10^6 cells (MutuDC1940) were plated onto 6-well plates. Next day, cells were treated with 8 μM of compound 6 or DMSO for 16 or 24 hours. Each condition was performed in triplicate. Supernatants were collected and murine CXCL2 was measured by ELISA according to the manufacturer's instructions (Invitrogen).

[2] = tested on: MutuDC1940 cells; experiment: Cell death assay (propidium iodide, number of dead cells by Incucyte)
Protocol: (§1) 1.5×10^4 cells (MutuDC1940) were plated onto 96 wells plates. Next day, cells were treated at 8 μM of compound 6 or vemurafenib or with the vehicle (DMSO) in presence of 0.3 μg/ml of propidium iodide (Sigma) to detect cell death. Proliferation and cell death were quantified by Incucyte® (Essen Biosciences) according to manufacturer's instructions over 48 h.
(§2) The results obtained for the cell death assay are presented on FIG. 3. FIG. 3 presents the number of dead cells observed during time for a culture of MutuDC1940 cells, a murine model of histiocytosis, treated at 8 μM with compound 6 according to the invention or with vemurafenib (a MAPK/BRAF inhibitor), or with the vehicle (DMSO).
(§3) The same experiments regarding cell proliferation (assessed by confluence in %) and cell death (assessed by number of dead cells on 13 mm^2) as in Example 1 were repeated with additional ERK/MyD88 inhibitors of formula (I): compounds 2, 7 and 17.
(§4) The same experiments regarding cell proliferation (assessed by confluence in %) and cell death (assessed by number of dead cells on 13 mm^2) as in Example 1 were repeated with a lower concentration, which corresponds to the IC50 of vemurafenib (BRAF inhibitor).

[3] = tested on: MutuDC1940 cells; experiment: Proliferation assay (confluence by Incucyte)
Protocol: as §1
as §2, with “proliferation” for “cell death”, “2.” for “3.”, “2” for “3”, “confluence, i.e. the percentage” for “number”, “the surface of the culture dish that is covered by the cells,” for “dead cells”
as §3, §4

[4] = 8 μM, over 48 h, vs vehicle (DMSO)

| Structure (SMILES) | production of CXCL2 (cytokine production) [1] | cell death (number of dead cells on 13 mm^2) [2, 4] | cell proliferation (confluence in %) [3, 4] | cell death (number of dead cells on 13 mm^2) ([2]; ulixertinib at 1 μM, FIG. 12) | cell proliferation (confluence in %) ([3]; ulixertinib at 1 μM, FIG. 11) |
| --- | --- | --- | --- | --- | --- |
| COc1ccc(NC(=O)c2ccc3[nH]c(-c4ccc(N(C)C)cc4)nc3c2)cn1 [compound 6] | induces cytokine production | induces the death of the cells | inhibits the proliferation of the cells |  |  |
| CC(C)Nc1cc(-c2c[nH]c(C(=O)N[C@H](CO)c3cccc(Cl)c3)c2)c(Cl)cn1 [ulixertinib, reference compound] |  |  |  | no effect on cell death | only inhibit proliferation |
